In ChEMBL document CHEMBL4387739, “Discovery of antichagasic inhibitors by high-throughput screening with Trypanosoma cruzi glucokinase” (Bioorg Med Chem Lett, 2019):

System: Trypanosoma cruzi
Assay: Inhibition of Trypanosoma cruzi glucokinase at 20 uM using D-glucose as substrate after 1 hr in presence of ATP and […] by resazurin dye based G6PDH-diaphorase coupled fluorescence assay relative to control
Conditions: not given

Row | Structure (SMILES) | inhibition [%]
1 | O=C1NC(=O)C(=Cc2ccc(N3CCOCC3)cc2)C(=O)N1 | 49.4
2 | Cc1ccc(-n2nc(C)c3c2OC(N)=C(C#N)C3c2ccoc2)cc1 (stereo not given) | 46.3
3 | COc1ccc([C@@H]2Oc3ccccc3C=C2[N+](=O)[O-])cc1OC | 41.5
4 | O=[N+]([O-])C1=Cc2c(ccc3ccccc23)O[C@H]1c1ccc2c(c1)OCO2 | 68.4
5 | Cc1nn(-c2ccccc2)c2c1C(c1ccc(F)cc1)C(C#N)=C(N)O2 (stereo not given) | 55
6 | O=C1NC(=O)C(=Cc2ccc3c(c2)OCO3)C(=O)N1 | 67
7 | Cc1nn(-c2cccc(Cl)c2)c2c1C(c1cc([N+](=O)[O-])ccc1Cl)C(C#N)=C(N)O2 (stereo not given) | 36.8
8 | COc1ccc(C(=O)Nc2sc3c(c2C(N)=O)CCCCC3)cc1OC | 42.7
9 | CCOc1ccc([C@@H]2Oc3c(Cl)cc(Cl)cc3C=C2[N+](=O)[O-])cc1OCC | 58.7
10 | COc1ccc(Br)cc1C1C(C#N)=C(N)Oc2c1c(C)nn2-c1ccccc1 (stereo not given) | 72.9
11 | CN1C(=O)C(=Cc2ccc(N(C)C)cc2)C(=O)N(C)C1=O | 63.5
12 | O=C1NC(=O)C(=Cc2ccc(O)c(O)c2)C(=O)N1 | 79.4

Species on record: Homo sapiens
Assay: Inhibition of human glucose-6-phosphate dehydrogenase truncated mutant (29 to 511 residues) at 20 uM in presence of NADP and glucose-6-phosphate by diaphorase/resazurin coupled fluorescence assay relative to control
Conditions: not given

Row | Structure (SMILES) | inhibition [%]
13 | O=C1NC(=O)C(=Cc2ccc(N3CCOCC3)cc2)C(=O)N1 | 1.6
14 | Cc1ccc(-n2nc(C)c3c2OC(N)=C(C#N)C3c2ccoc2)cc1 (stereo not given) | 19.9
15 | COc1ccc([C@@H]2Oc3ccccc3C=C2[N+](=O)[O-])cc1OC | 8.1
16 | O=[N+]([O-])C1=Cc2c(ccc3ccccc23)O[C@H]1c1ccc2c(c1)OCO2 | 8.2
17 | Cc1nn(-c2ccccc2)c2c1C(c1ccc(F)cc1)C(C#N)=C(N)O2 (stereo not given) | 2.7
18 | O=C1NC(=O)C(=Cc2ccc3c(c2)OCO3)C(=O)N1 | 5.5
19 | Cc1nn(-c2cccc(Cl)c2)c2c1C(c1cc([N+](=O)[O-])ccc1Cl)C(C#N)=C(N)O2 (stereo not given) | 1.7
20 | COc1ccc(C(=O)Nc2sc3c(c2C(N)=O)CCCCC3)cc1OC | 12.6
21 | CCOc1ccc([C@@H]2Oc3c(Cl)cc(Cl)cc3C=C2[N+](=O)[O-])cc1OCC | 9.3
22 | COc1ccc(Br)cc1C1C(C#N)=C(N)Oc2c1c(C)nn2-c1ccccc1 (stereo not given) | 14
23 | CN1C(=O)C(=Cc2ccc(N(C)C)cc2)C(=O)N(C)C1=O | 10
24 | O=C1NC(=O)C(=Cc2ccc(O)c(O)c2)C(=O)N1 | 2

Molecular target: not listed separately
Assay: Inhibition of Trypanosoma cruzi glucokinase using D-glucose as substrate in presence of ATP and […] measured for every 30 secs for 10 mins by resazurin dye based G6PDH-diaphorase coupled fluorescence assay relative to control
Conditions: not given

Row | Structure (SMILES) | IC50 [µM]
25 | O=C1NC(=O)C(=Cc2ccc(N3CCOCC3)cc2)C(=O)N1 | 0.9
26 | COc1ccc([C@@H]2Oc3ccccc3C=C2[N+](=O)[O-])cc1OC | 53.2
27 | Cc1nn(-c2ccccc2)c2c1C(c1ccc(F)cc1)C(C#N)=C(N)O2 (stereo not given) | 17.1
28 | O=C1NC(=O)C(=Cc2ccc3c(c2)OCO3)C(=O)N1 | 8.7
29 | CCOc1ccc([C@@H]2Oc3c(Cl)cc(Cl)cc3C=C2[N+](=O)[O-])cc1OCC | 4.8
30 | CN1C(=O)C(=Cc2ccc(N(C)C)cc2)C(=O)N(C)C1=O | 5.5
31 | O=C1NC(=O)C(=Cc2ccc(O)c(O)c2)C(=O)N1 | 3.1

System: Trypanosoma cruzi
Assay: Antitrypanosomal activity against Trypanosoma cruzi Tulahuen […] infected in mouse NIH/3T3 cells assessed as parasite viability at 80 uM by beta-galactosidase reporter gene assay relative to control
Format: functional
Conditions: not given

Row | Structure (SMILES) | Activity [%]
32 | O=C1NC(=O)C(=Cc2ccc(N3CCOCC3)cc2)C(=O)N1 | 88
33 | Cc1ccc(-n2nc(C)c3c2OC(N)=C(C#N)C3c2ccoc2)cc1 (stereo not given) | 80.6
34 | COc1ccc([C@@H]2Oc3ccccc3C=C2[N+](=O)[O-])cc1OC | 0
35 | O=[N+]([O-])C1=Cc2c(ccc3ccccc23)O[C@H]1c1ccc2c(c1)OCO2 | 0
36 | Cc1nn(-c2ccccc2)c2c1C(c1ccc(F)cc1)C(C#N)=C(N)O2 (stereo not given) | 87.1
37 | O=C1NC(=O)C(=Cc2ccc3c(c2)OCO3)C(=O)N1 | 81.2
38 | Cc1nn(-c2cccc(Cl)c2)c2c1C(c1cc([N+](=O)[O-])ccc1Cl)C(C#N)=C(N)O2 (stereo not given) | 0
39 | COc1ccc(C(=O)Nc2sc3c(c2C(N)=O)CCCCC3)cc1OC | 50.5
40 | CCOc1ccc([C@@H]2Oc3c(Cl)cc(Cl)cc3C=C2[N+](=O)[O-])cc1OCC | 0
41 | COc1ccc(Br)cc1C1C(C#N)=C(N)Oc2c1c(C)nn2-c1ccccc1 (stereo not given) | 0
42 | CN1C(=O)C(=Cc2ccc(N(C)C)cc2)C(=O)N(C)C1=O | 78.9
43 | O=C1NC(=O)C(=Cc2ccc(O)c(O)c2)C(=O)N1 | 62.8

System: Trypanosoma cruzi
Assay: Antitrypanosomal activity against Trypanosoma cruzi Tulahuen […] infected in mouse NIH/3T3 cells assessed as reduction in parasite viability by beta-galactosidase reporter gene assay
Format: functional, organism-based
Conditions: NIH3T3

Row | Structure (SMILES) | EC50 [µM]
44 | CCOc1ccc([C@@H]2Oc3c(Cl)cc(Cl)cc3C=C2[N+](=O)[O-])cc1OCC | 2.9

System: not listed separately
Assay: Cytotoxicity against mouse NIH/3T3 cells after 72 hrs by alamar blue assay
Format: cell-based, NIH3T3
Conditions: read-out: TC50

Row | Structure (SMILES) | CC50 at 72 h [µM]
45 | CCOc1ccc([C@@H]2Oc3c(Cl)cc(Cl)cc3C=C2[N+](=O)[O-])cc1OCC | < 100
